Source: patent US20250034136A1 (Nimbus Wadjet, Inc., priority 2023, published 2025)
Read-outs that look alike come from different tables or passages of the source.

Legend:
[1] = system: p21 induction in HCT116 cells; test: p21 induction in HCT116 cells; format: cell-based; conditions: Homo sapiens, HCT-116, 24 h, read-out: P21_EC50
Outline: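 HCT116 cells, 2,000/well, treated 24 h at 37 °C with 11-point compound dilutions in duplicate. Fixed, then immunostained for p21 and GAPDH and read by near-IR imaging at 800/700 nm. Normalized to DMSO (low) and reference WRN inhibitor (high) controls; EC50 from non-linear regression.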

[2] = target: WRN (BV08), human Werner helicase (Uniprot Q14191, amino acids 517-1235 with L1074F point mutation) (Homo sapiens (Human), UniProt Q14191, L1074F); test: WRN (BV08) ADP-Glo assay; format: biochemical; conditions: class symbols A-E, read-out: ADP-Glo_hWRN_IC50
[3] = HCT116 cells, 24 h compound incubation

WRN (BV08), human Werner helicase (Uniprot Q14191, amino acids 517-1235 with L1074F point mutation), sequence (Q14191 other isoform, or with tags, fused parts or gaps L1074F (already in the parent)): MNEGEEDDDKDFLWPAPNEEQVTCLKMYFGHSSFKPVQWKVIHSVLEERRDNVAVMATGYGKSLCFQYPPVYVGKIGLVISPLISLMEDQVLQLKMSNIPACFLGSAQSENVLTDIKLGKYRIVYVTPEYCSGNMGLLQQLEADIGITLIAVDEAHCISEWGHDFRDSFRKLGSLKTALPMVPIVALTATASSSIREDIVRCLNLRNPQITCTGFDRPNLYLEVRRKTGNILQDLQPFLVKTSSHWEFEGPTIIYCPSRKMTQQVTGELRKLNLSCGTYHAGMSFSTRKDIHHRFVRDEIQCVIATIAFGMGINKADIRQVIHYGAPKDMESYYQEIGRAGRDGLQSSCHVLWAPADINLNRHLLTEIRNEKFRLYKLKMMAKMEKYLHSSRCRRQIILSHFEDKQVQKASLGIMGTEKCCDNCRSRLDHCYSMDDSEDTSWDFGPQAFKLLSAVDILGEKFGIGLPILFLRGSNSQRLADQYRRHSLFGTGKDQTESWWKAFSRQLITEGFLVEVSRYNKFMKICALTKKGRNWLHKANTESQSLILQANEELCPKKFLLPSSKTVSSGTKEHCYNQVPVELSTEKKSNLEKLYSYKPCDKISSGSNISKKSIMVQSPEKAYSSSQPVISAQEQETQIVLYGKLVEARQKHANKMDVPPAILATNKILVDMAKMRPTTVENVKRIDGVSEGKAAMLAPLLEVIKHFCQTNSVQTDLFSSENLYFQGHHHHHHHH

Row | IC50 [2] [nM] | EC50 [1, 3] [nM] | Structure (SMILES) | EC50 [1] [nM]
1 | 50 to 100 | > 5000 | CCc1c(N2CCN(C(=O)c3cnn(C)c3)CC2)c(=O)c2ncc(C)nc2n1CC(=O)Nc1ccc(C(F)(F)F)cc1Cl [I-2, N-(2-chloro-4-(trifluoromethyl)phenyl)-2-(6-ethyl-3-methyl-7-(4-(1-methyl-1H-pyrazole-4-carbonyl)piperazin-1-yl)-8-oxopyrido[2,3-b]pyrazin-5(8H)-yl)acetamide] | –
2 | 5 to 50 | > 5000 | CCc1c(N2CCN(C(=O)c3ncccc3O)CC2)c(=O)c2ncc(C)nc2n1CC(=O)Nc1ccc(C(F)(F)F)cc1Cl [I-3, N-(2-chloro-4-(trifluoromethyl)phenyl)-2-(6-ethyl-7-(4-(3-hydroxypicolinoyl)piperazin-1-yl)-3-methyl-8-oxopyrido[2,3-b]pyrazin-5(8H)-yl)acetamide] | –
3 | 5 to 50 | > 5000 | CCc1c(N2CCN(C(=O)c3ccnc(OC)c3O)CC2)c(=O)c2ncc(C)nc2n1CC(=O)Nc1ccc(C(F)(F)F)cc1Cl [I-4, N-(2-chloro-4-(trifluoromethyl)phenyl)-2-(6-ethyl-7-(4-(3-hydroxy-2-methoxyisonicotinoyl)piperazin-1-yl)-3-methyl-8-oxopyrido[2,3-b]pyrazin-5(8H)-yl)acetamide] | –
4 | 100 to 500 | > 5000 | CCc1c(N2CCN(C(C)=O)CC2)c(=O)c2ncc(C)nc2n1CC(=O)Nc1ccc(C(F)(F)F)cc1Cl [I-5, 2-(7-(4-acetylpiperazin-1-yl)-6-ethyl-3-methyl-8-oxopyrido[2,3-b]pyrazin-5(8H)-yl)-N-(2-chloro-4-(trifluoromethyl)phenyl)acetamide] | –
5 | 5 to 50 | 2000 to 5000 | CCc1c(N2CCN(C(=O)c3c(O)ccnc3OC)CC2)c(=O)c2ncc(C)nc2n1CC(=O)Nc1ccc(C(F)(F)F)cc1Cl [I-6, N-(2-chloro-4-(trifluoromethyl)phenyl)-2-(6-ethyl-7-(4-(4-hydroxy-2-methoxynicotinoyl)piperazin-1-yl)-3-methyl-8-oxopyrido[2,3-b]pyrazin-5(8H)-yl)acetamide] | –
6 | 5 to 50 | > 5000 | CCc1c(N2CCN(C(=O)c3ncnc(C)c3O)CC2)c(=O)c2nc(-c3ccnc(OC)c3)cnc2n1CC(=O)Nc1ccc(C(F)(F)F)cc1Cl [I-7, N-(2-chloro-4-(trifluoromethyl)phenyl)-2-(6-ethyl-7-(4-(5-hydroxy-6-methylpyrimidine-4-carbonyl)piperazin-1-yl)-2-(2-methoxypyridin-4-yl)-8-oxopyrido[2,3-b]pyrazin-5(8H)-yl)acetamide] | –
7 | 5 to 50 | 500 to 2000 | C/C=C/c1cnc2c(n1)c(=O)c(N1CCN(C(=O)c3ncnc(C)c3O)CC1)c(CC)n2CC(=O)Nc1ccc(C(F)(F)F)cc1Cl [I-8, (E)-N-(2-chloro-4-(trifluoromethyl)phenyl)-2-(6-ethyl-7-(4-(5-hydroxy-6-methylpyrimidine-4-carbonyl)piperazin-1-yl)-8-oxo-2-(prop-1-en-1-yl)pyrido[2,3-b]pyrazin-5(8H)-yl)acetamide] | –
8 | 5 to 50 | 500 to 2000 | C=C(C)c1cnc2c(n1)c(=O)c(N1CCN(C(=O)c3ncnc(C)c3O)CC1)c(CC)n2CC(=O)Nc1ccc(C(F)(F)F)cc1Cl [I-9, N-(2-chloro-4-(trifluoromethyl)phenyl)-2-(6-ethyl-7-(4-(5-hydroxy-6-methylpyrimidine-4-carbonyl)piperazin-1-yl)-8-oxo-2-(prop-1-en-2-yl)pyrido[2,3-b]pyrazin-5(8H)-yl)acetamide] | –
9 | 5 to 50 | 2000 to 5000 | CCc1c(N2CCN(C(=O)c3ncnc(C)c3O)CC2)c(=O)c2nc(C3CC3)cnc2n1CC(=O)Nc1ccc(C(F)(F)F)cc1Cl [I-10, N-(2-chloro-4-(trifluoromethyl)phenyl)-2-(2-cyclopropyl-6-ethyl-7-(4-(5-hydroxy-6-methylpyrimidine-4-carbonyl)piperazin-1-yl)-8-oxopyrido[2,3-b]pyrazin-5(8H)-yl)acetamide] | –
10 | 5 to 50 | 2000 to 5000 | CC#Cc1cnc2c(n1)c(=O)c(N1CCN(C(=O)c3ncnc(C)c3O)CC1)c(CC)n2CC(=O)Nc1ccc(C(F)(F)F)cc1Cl [I-11, N-(2-chloro-4-(trifluoromethyl)phenyl)-2-(6-ethyl-7-(4-(5-hydroxy-6-methylpyrimidine-4-carbonyl)piperazin-1-yl)-8-oxo-2-(prop-1-yn-1-yl)pyrido[2,3-b]pyrazin-5(8H)-yl)acetamide] | –
11 | 5 to 50 | > 5000 | CCc1c(N2CCN(C(=O)c3ncnc(C)c3O)CC2)c(=O)c2nc(OC)c(C)nc2n1CC(=O)Nc1ccc(C(F)(F)F)cc1Cl [I-12, N-(2-chloro-4-(trifluoromethyl)phenyl)-2-(6-ethyl-7-(4-(5-hydroxy-6-methylpyrimidine-4-carbonyl)piperazin-1-yl)-2-methoxy-3-methyl-8-oxopyrido[2,3-b]pyrazin-5(8H)-yl)acetamide] | –
12 | 50 to 100 | > 5000 | CCc1c(N2CCN(C(=O)c3ncnc(C)c3O)CC2)c(=O)c2nc(C(F)F)cnc2n1CC(=O)Nc1ccc(C(F)(F)F)cc1Cl [I-13, N-(2-chloro-4-(trifluoromethyl)phenyl)-2-(2-(difluoromethyl)-6-ethyl-7-(4-(5-hydroxy-6-methylpyrimidine-4-carbonyl)piperazin-1-yl)-8-oxopyrido[2,3-b]pyrazin-5(8H)-yl)acetamide] | –
13 | 5 to 50 | < 500 | CCO/C=C/c1cnc2c(n1)c(=O)c(N1CCN(C(=O)c3ncnc(C)c3O)CC1)c(CC)n2CC(=O)Nc1ccc(C(F)(F)F)cc1Cl [I-15, (E)-N-(2-chloro-4-(trifluoromethyl)phenyl)-2-(2-(2-ethoxyvinyl)-6-ethyl-7-(4-(5-hydroxy-6-methylpyrimidine-4-carbonyl)piperazin-1-yl)-8-oxopyrido[2,3-b]pyrazin-5(8H)-yl)acetamide] | –
14 | 5 to 50 | 500 to 2000 | CCc1c(N2CCN(C(=O)c3ncnc(C)c3O)CC2)c(=O)c2nc(C3CC3)c(C)nc2n1CC(=O)Nc1ccc(C(F)(F)F)cc1Cl [I-17, N-(2-chloro-4-(trifluoromethyl)phenyl)-2-(2-cyclopropyl-6-ethyl-7-(4-(5-hydroxy-6-methylpyrimidine-4-carbonyl)piperazin-1-yl)-3-methyl-8-oxopyrido[2,3-b]pyrazin-5(8H)-yl)acetamide] | –
15 | 5 to 50 | > 5000 | CCc1c(N2CCN(C(=O)c3ncnc(C)c3O)CC2)c(=O)c2nc(Cl)cnc2n1CC(=O)Nc1ccc(C(F)(F)F)cc1Cl [I-19, N-(2-chloro-4-(trifluoromethyl)phenyl)-2-(2-chloro-6-ethyl-7-(4-(5-hydroxy-6-methylpyrimidine-4-carbonyl)piperazin-1-yl)-8-oxopyrido[2,3-b]pyrazin-5(8H)-yl)acetamide] | –
16 | 5 to 50 | > 5000 | CCc1c(N2CCN(C(=O)c3ncnc(C)c3O)CC2)c(=O)c2nc(NC)cnc2n1CC(=O)Nc1ccc(C(F)(F)F)cc1Cl [I-20, N-(2-chloro-4-(trifluoromethyl)phenyl)-2-(6-ethyl-7-(4-(5-hydroxy-6-methylpyrimidine-4-carbonyl)piperazin-1-yl)-2-(methylamino)-8-oxopyrido[2,3-b]pyrazin-5(8H)-yl)acetamide] | –
17 | 5 to 50 | 500 to 2000 | C/C=C/c1nc2c(=O)c(N3CCN(C(=O)c4ncnc(C)c4O)CC3)c(CC)n(CC(=O)Nc3ccc(C(F)(F)F)cc3Cl)c2nc1C [I-21, (E)N-(2-chloro-4-(trifluoromethyl)phenyl)-2-(6-ethyl-7-(4-(5-hydroxy-6-methylpyrimidine-4-carbonyl)piperazin-1-yl)-3-methyl-8-oxo-2-(prop-1-en-1-yl)pyrido[2,3-b]pyrazin-5(8H)-yl)acetamide] | –
18 | 50 to 100 | > 5000 | CCc1c(N2CCN(C(=O)c3ncnc(C)c3O)CC2)c(=O)c2nc(C(C)(C)O)c(C)nc2n1CC(=O)Nc1ccc(C(F)(F)F)cc1Cl [I-22, N-(2-chloro-4-(trifluoromethyl)phenyl)-2-(6-ethyl-7-(4-(5-hydroxy-6-methylpyrimidine-4-carbonyl)piperazin-1-yl)-2-(2-hydroxypropan-2-yl)-3-methyl-8-oxopyrido[2,3-b]pyrazin-5(8H)-yl)acetamide] | –

Row | Structure (SMILES) | IC50 [2] [nM] | EC50 [1, 3] [nM] | EC50 [1] [nM]
19 | CCc1c(N2CCN(C(=O)c3ncnc(C)c3O)CC2)c(=O)c2ncc(C)nc2n1CC(=O)Nc1ccc(C(F)(F)F)cc1Cl [I-1, N-(2-chloro-4-(trifluoromethyl)phenyl)-2-(6-ethyl-7-(4-(5-hydroxy-6-methylpyrimidine-4-carbonyl)piperazin-1-yl)-3-methyl-8-oxopyrido[2,3-b]pyrazin-5(8H)-yl)acetamide] | 5 to 50 | – | 2000 to 5000
20 | CCc1c(N2CCN(C(=O)c3ncnc(C)c3O)CC2)c(=O)c2nc(N(C)C)cnc2n1CC(=O)Nc1ccc(C(F)(F)F)cc1Cl [I-14, N-(2-chloro-4-(trifluoromethyl)phenyl)-2-(2-(dimethylamino)-6-ethyl-7-(4-(5-hydroxy-6-methylpyrimidine-4-carbonyl)piperazin-1-yl)-8-oxopyrido[2,3-b]pyrazin-5(8H)-yl)acetamide] | 5 to 50 | – | 500 to 2000
21 | C=Cc1nc2c(=O)c(N3CCN(C(=O)c4ncnc(C)c4O)CC3)c(CC)n(CC(=O)Nc3ccc(C(F)(F)F)cc3Cl)c2nc1C [I-18, N-(2-chloro-4-(trifluoromethyl)phenyl)-2-(6-ethyl-7-(4-(5-hydroxy-6-methylpyrimidine-4-carbonyl)piperazin-1-yl)-3-methyl-8-oxo-2-vinylpyrido[2,3-b]pyrazin-5(8H)-yl)acetamide] | 5 to 50 | – | 500 to 2000
22 | C=C(C)c1nc2c(=O)c(N3CCN(C(=O)c4ncnc(C)c4O)CC3)c(CC)n(CC(=O)Nc3ccc(C(F)(F)F)cc3Cl)c2nc1C [I-23, N-(2-chloro-4-(trifluoromethyl)phenyl)-2-(6-ethyl-7-(4-(5-hydroxy-6-methylpyrimidine-4-carbonyl)piperazin-1-yl)-3-methyl-8-oxo-2-(prop-1-en-2-yl)pyrido[2,3-b]pyrazin-5(8H)-yl)acetamide] | 5 to 50 | – | 500 to 2000
